Reference: ChEMBL document CHEMBL3994663, “Iminosugar-based ceramide mimicry for the design of new CERT START domain ligands” (Bioorg Med Chem, 2017)

target: T1, Ceramide transfer protein (Homo sapiens) (UniProt Q9Y5P4); test: Inhibition of fluorescent ceramide probe binding to recombinant His-tagged START domain of CERT (unknown origin) assessed as bound fluorescent ceramide probe level at 200 pmol preincubated for 30 mins followed by ceramide probe addition after 30 mins by FLINT assay (reference value: 28.4 +/- 2.75%); parameters: scale not given: the % may be the effect or the level left
T1 sequence (whole entry): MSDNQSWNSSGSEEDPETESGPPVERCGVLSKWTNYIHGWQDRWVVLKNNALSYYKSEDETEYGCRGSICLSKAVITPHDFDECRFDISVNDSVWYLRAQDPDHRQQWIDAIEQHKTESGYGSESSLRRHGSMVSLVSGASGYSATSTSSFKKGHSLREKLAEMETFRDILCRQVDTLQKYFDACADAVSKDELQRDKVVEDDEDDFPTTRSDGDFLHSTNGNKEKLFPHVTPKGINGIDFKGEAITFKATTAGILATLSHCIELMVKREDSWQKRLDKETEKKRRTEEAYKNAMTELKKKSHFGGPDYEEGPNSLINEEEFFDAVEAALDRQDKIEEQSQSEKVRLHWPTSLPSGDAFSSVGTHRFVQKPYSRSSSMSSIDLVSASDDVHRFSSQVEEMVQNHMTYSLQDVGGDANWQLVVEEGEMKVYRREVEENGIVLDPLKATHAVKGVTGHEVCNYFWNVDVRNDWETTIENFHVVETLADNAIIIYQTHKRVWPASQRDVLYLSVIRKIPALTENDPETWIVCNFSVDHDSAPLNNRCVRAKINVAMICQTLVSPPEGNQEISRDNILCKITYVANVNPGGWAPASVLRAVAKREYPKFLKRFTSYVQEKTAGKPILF

Row | Activity [%] | SMILES
1 | 30.1 | CCCCCCCCCCCCO[C@H]1CN(CCCCCCCCCCCC)C[C@@H](O)[C@@H]1O
2 | 54.3 | CCCCCCCCCCCCO[C@@H]1CN(CCCCCCCCCCCC)C[C@@H](O)[C@@H]1O

The next lines start with the molecule.

Row | SMILES | Activity [%]
3 | CCCCCCCCCCCCN1C[C@@H](O)[C@H](O)[C@@H](O)C1 | 48
4 | CCCCCCCCCCCCO[C@H]1CNC[C@@H](OCCCCCCCCCCCC)[C@@H]1O | 51.1
5 | CCCCCCCCCCCCO[C@@H]1CNC[C@@H](O)[C@@H]1O | 61.3
6 | CCCCCCCCCCCCO[C@H]1CNC[C@@H](O)[C@@H]1O | 41
7 | CCCCCCCCCCCC(=O)N[C@@H](CO)C[C@H](O)c1ccccc1 | 25.5
8 | O[C@H]1[C@H](O)CNC[C@@H]1O | 36.6
